The values that follow come from US20090074766A1, “Methods of inhibiting HIV-2 infection” (priority 2007, published 2009).

Where two headings read alike, the source gives them in different places.

Holding throughout (set-up): CI90: unit not given beside the values
The subject of assay [1] is HIV-1JR-FL envelope-mediated membrane fusion (HeLa-EnvJRFL and CEM NKR-CCR5 cells). Kind of assay: cell-based. The method, then:
(§1) The HIV-1 RET assay has been described in detail previously (Litwin et al., 1996). Briefly, fluorescein octadecyl ester (F18; Molecular Probes, Eugene, Oreg.; 5 mg/ml in ethanol), was diluted 1:800 in DMEM labeling medium (DMEM; Invitrogen, Carlsbad, Calif.) with 10% fetal bovine serum (FBS; HyClone, Logan, Utah) and adjusted to an A506 of 0.34±10%. Octadecyl rhodamine B chloride (R18; Molecular Probes; 10 mg/ml in ethanol) was diluted 1:2050 in labeling medium and adjusted to an A565 of 0.52±10%. Both dyes were further diluted 2-fold by addition to cells in T75-cm^2 flasks. HeLa-EnvJRFL and CEM NKR-CCR5 cells were incubated overnight in F18- and R18-containing culture medium, respectively. The following day, medium from HeLa-EnvJRFL cells was removed and 10 ml of 0.5 mM EDTA was added and incubated at 37° C. for 5 min. EDTA was removed and the flask was returned to the incubator for another 5 min followed by striking of the flask to dislodge cells. […] Suspension CEM NKR-CCR5 cells were added directly to a separate 50-ml conical centrifuge tube. Both cell lines were centrifuged at 300×g for 5 min. The supernatant was discarded and cells were resuspended in 10 ml of PBS-/15% FBS. The centrifugation/wash step was repeated twice, after which the cells were counted and concentrations adjusted to 1.5×10^6 cells/ml. Ten μl of each cell type (15,000 cells) were seeded into wells of a 384-well plate. Inhibitor compounds were added immediately thereafter to bring the final well volume to 40 μl, and the plates were incubated for 4 h at 37° C. Compounds were tested individually and in combination at a fixed molar ratio or mass ratio over a range of serial dilutions. The plates were then read on a fluorescence plate reader (Victor^2, Perkin Elmer, Boston, Mass.) using the excitation/emission filter combinations shown in Table 6.
(§2) The “% RET” was calculated according to the following formula after subtraction of background (blank) readings: […]
(§3) The “% Inhibition” was calculated according to the following formula: […]
(§4) Fifty percent inhibition (IC50) values were determined by fitting the inhibition data with a non-linear, four-parameter, variable slope equation (GraphPad Prism, 4.02; GraphPad Software, San Diego, Calif.). Upper and lower inhibition values were constrained to 100% and 0%, respectively for curve fitting.
(§5) For testing, small molecule compounds were solubilized in dimethylsulfoxide (DMSO) to 10 mM and then diluted in DMSO to 200× the final concentration to be utilized in the antiviral assay. Serial dilutions of small molecules were conducted in DMSO. Subsequent dilutions were conducted in medium to achieve a final DMSO concentration in the assay of 0.5%. Peptides and mAbs were diluted in PBS in the absence of DMSO.
(§6) HeLa cells were engineered to express HIV-1 gp120/gp41 from the macrophage-tropic primary isolate JRFL as described (HeLa-EnvJRFL; Litwin et al., 1996). Briefly, the HIV-1LAI Env gene was excised from the plasmid pMA243 (Dragic et al., 1992) and the HIV-1JRFL Env gene was inserted. The HIV-1JRFL Env gene was amplified from the plasmid pUCFL112-1 (Koyanagi et al., 1987). The resulting plasmid, designated JR-FL-pMA243, was sequenced by standard methods and transfected into HeLa cells using lipofectin (Gibco BRL/Invitrogen, Carlsbad, Calif.). HeLa-EnvJRFL transfectants were selected in methotrexate (Sigma, St. Louis, Mo.) and cloned twice by limiting dilution. The transduced human T cell leukemia line CEM NKR-CCR5 cells were obtained from the NIH AIDS Research and Reference Program (Cat. No. 458).
(§7) The HIV-1 RET assay has been described in detail previously (Litwin et al., 1996). Briefly, fluorescein octadecyl ester (F18; Molecular Probes, Eugene, Oreg.; 5 mg/ml in ethanol), was diluted 1:800 in DMEM labeling medium (DMEM; Invitrogen, Carlsbad, Calif.) with 10% fetal bovine serum (FBS; HyClone, Logan, Utah) and adjusted to an A506 of 0.34±10%.

For assay [2], the system named is reporter viruses pseudotyped with HIV-1SF162 envelope. Format: cell-based. The conditions noted are these: for CI50 / CI90: envelope SF162; for IC50 / IC90: 1st inhibitor alone, HIV-1 envelope SF162. An excerpt:
A self-inactivating (SIN) vector was derived from the pNL4-3ΔEnv-luciferase vector (Dragic et al. 1996) by deleting 507 basepairs in the U3 region of the 3′ long terminal repeat (LTR) so as to remove the TATA box and transcription factor binding sites. The human cytomegalovirus promoter was inserted upstream of the luciferase (luc) gene to enable expression of luciferase following integration.
Reporter viruses pseudotyped with HIV-1JR-FL or HIV-1SF162 envelopes were generated by cotransfection of 293T cells with the SIN vector and the appropriate pcDNA env-expressing vector as previously described (Dragic et al. 1996). […] Cultures were incubated for 72 h at 37° C. in DMEM containing 10% fetal bovine serum, 1 mg/mL puromycin, 0.3 mg/mL geneticin, antibiotics, and 0.5% DMSO. Luciferase activity (relative light units or RLU) was measured using BrightGlo reagent (Promega, Madison, Wis.) according to the manufacturer's instructions. Percent inhibition was calculated as: (1−RLU in the presence of inhibitor/RLU in the absence of inhibitor)×100.
Experimental design and data analysis were based on the combination index (CI) method (Chou et al. 1991; Chou et al. 1984). Compounds were tested individually and in combination at a fixed molar ratio over a range of serial dilutions. […] The mutually exclusive CI formula was used for combinations of CCR5 inhibitors, while the mutually non-exclusive formula was utilized for combinations of inhibitors to distinct targets (Chou et al. 1991). Each test was conducted 4-12 times. Synergy, additivity and antagonism are indicated by CI<1, CI=1 and CI>1, respectively.

In assay [3] the target is HIV-1JR-FL envelope-mediated membrane fusion (HeLa-EnvJRFL and CEM NKR-CCR5 cells) (Homo sapiens, UniProt P51681). Kind of assay: cell-based. The note with it: for Mean Dose Reduction (2D7) / Mean Dose Reduction (Cpd in combination): 2D7 in combination with the labelled inhibitor, 1:1 molar ratio. As to the method: as §1, §2, §3, §4, §5, §6, §7
Where [4] appears, read: PRO 140 in combination with the labelled inhibitor, 1:1 molar ratio.
Setting [5] is: labelled 1st inhibitor with 2nd inhibitor PRO 140, equimolar, mean ± SD of 4-12 assays.
The mark [6] stands for this setting: molar ratio PRO 140 to labelled inhibitor 1:5.
Where [7] appears, read: molar ratio PRO 140 to labelled inhibitor 5:1.
Where [8] appears, read: labelled 1st inhibitor with 2nd inhibitor PRO 140, equimolar (1:10 PRO 140 to zidovudine or nevirapine).
Setting [9] is: SCH-D (Drug 1) with TAK-779 (Drug 2), molar ratio 1:1.
Setting [10] is: inhibitor tested individually, experiment depicted in FIG. 11B.
Where [11] appears, read: labelled 1st inhibitor with 2nd inhibitor UK-427,857, equimolar.
Setting [12] is: inhibitor tested individually, experiment depicted in FIG. 11A.

HIV-1JR-FL envelope-mediated membrane fusion (HeLa-EnvJRFL and CEM NKR-CCR5 cells) (Homo sapiens, UniProt P51681), sequence (P51681 whole entry, the tested form may be a part): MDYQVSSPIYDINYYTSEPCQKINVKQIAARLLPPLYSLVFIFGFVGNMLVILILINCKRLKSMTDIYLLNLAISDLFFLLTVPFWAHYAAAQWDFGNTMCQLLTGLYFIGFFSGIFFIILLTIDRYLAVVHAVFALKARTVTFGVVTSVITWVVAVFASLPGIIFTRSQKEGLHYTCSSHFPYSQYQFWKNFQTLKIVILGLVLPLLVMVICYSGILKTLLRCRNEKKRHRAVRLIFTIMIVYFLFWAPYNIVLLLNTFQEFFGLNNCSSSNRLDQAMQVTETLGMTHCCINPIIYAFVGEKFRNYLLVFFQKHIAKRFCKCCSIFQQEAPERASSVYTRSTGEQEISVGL

Take `COc1ccnc2[nH]cc(C(=O)C(=O)N3CCN(C(=O)c4ccccc4)C[C@H]3C)c12` [BMS-378806, (R)-N-(benzoyl)-3-methyl-N′-[(4-methoxy-7-azaindol-3-yl)-oxoacetyl]-piperazine]: in assay [1] (setting [4]), the “Mean CI (Combination Index at IC50)” value was 1.21±0.21, the “Mean Dose Reduction (Cpd in combination)” value was 2.85 ± 0.76 and the “Mean Dose Reduction (PRO 140)” value turned out to be 1.64 ± 0.30. For the same molecule, the “Mean Combination Index (at IC50)” value in assay [1] (PRO 140 in combination with the labelled inhibitor, molar ratio PRO 140 to inhibitor 1:5) came to 1.55 ± 0.24. Moreover, the “Mean Combination Index (at IC50)” value in assay [1] (PRO 140 in combination with the labelled inhibitor, molar ratio PRO 140 to inhibitor 5:1) was determined as 1.12 ± 0.10. Besides, the CI90 in assay [1] (setting [5]) was 1.1 ± 0.22. Moreover, in assay [1] (setting [6]), the “Mean Dose Reduction (Cpd. in combination)” value was 1.07 ± 0.31 and the “Mean Dose Reduction (PRO 140)” value worked out at 3.64 ± 0.73. For the same molecule, in assay [1] (setting [7]), the “Mean Dose Reduction (Cpd. in combination)” value was 8.88 ± 4.16 and the “Mean Dose Reduction (PRO 140)” value came to 1.14 ± 0.06. In assay [2] (setting [8]), the CI50 amounted to 1.1 ± 0.28 and the CI90 amounted to 0.82 ± 0.21.
Usually IC50 stands for the midpoint of a concentration-inhibition curve. As for `COC[C@@H](c1ccc(C(F)(F)F)cc1)N1CCN(C2(C)CCN(C(=O)c3c(C)ncnc3C)CC2)C[C@@H]1C` [SCH-D, 1-[(4,6-dimethyl-5-pyrimidinyl)carbonyl]-4-[4-[2-methoxy-1(R)-4-(trifluoromethyl)phenyl]ethyl-3(S)-methyl-1-piperazinyl]-4-methylpiperidine], the “Mean Dose Reduction (2D7)” value in assay [3] came to 3.25 ± 0.56. The figures for the “Mean Dose Reduction (Cpd in combination)” value in assay [3] and in assay [1] (setting [4]) were 4.04 ± 0.78 and 3.90 ± 0.71, respectively. Besides, in assay [3] (setting [9]), the “Mean CI ± stdev” value is reported as 1.12±0.32. The “Mean DR (Drug 1)” value in assay [3] (setting [9]) is 1.48 ± 0.96. Further, the CI90 in assay [3] (SCH-D and UK-427,857 1:1, experiment depicted in FIG. 11B) was 0.73; in assay [1] (setting [11]), 0.75 ± 0.02. For the same molecule, the IC90 amounted to 0.034 µM in assay [3] (setting [10]); 0.031 µM in assay [3] (read-out: IC90 of the combination, 1:1 fixed molar ratio combination of SCH-D and UK-427,857, FIG. 11B); 0.016 µM in assay [1] (1st inhibitor alone (Table 13)); 0.014 µM in assay [2] (read-out: IC90). Moreover, the IC50 in assay [1] (1st inhibitor alone (Table 13)) was 0.0032 µM; in assay [2] (read-out: IC50), 0.00034 µM. The “Mean Dose Reduction (PRO 140)” value in assay [1] (setting [4]) is 4.21 ± 0.96; in assay [1] (setting [6]), 9.95 ± 2.03; in assay [1] (setting [7]) it was 1.92 ± 0.40. The CI50 in assay [1] (labelled 1st inhibitor with 2nd inhibitor TAK-779, equimolar) amounted to 1.3 ± 0.18; in assay [1] (setting [11]) it was 0.86 ± 0.03. Also, the entries for the “Mean Dose Reduction (Cpd. in combination)” value in assay [1] (setting [6]) and in assay [1] (setting [7]) were 1.73 ± 0.19 and 8.44 ± 1.27, respectively.
Take `Cc1nnc(C(C)C)n1C1CC2CCC(C1)N2CC[C@H](NC(=O)C1CCC(F)(F)CC1)c1ccccc1` (some centres unmarked) [UK-427,857]: the IC90 in assay [3] (setting [12]) stood at 0.021 µM; in assay [3] (setting [10]), 0.059 µM; in assay [3] (read-out: IC90 of the combination, 1:1 fixed molar ratio combination of PRO 140 and UK-427,857, FIG. 11A) it was 0.0046 µM; in assay [2] it was 0.013 µM. For the same molecule, the “Mean Dose Reduction (Cpd in combination)” value in assay [1] (setting [4]) is on record as 2.98 ± 0.65. In addition, the “Mean Dose Reduction (PRO 140)” value is given as 4.16 ± 0.41 in assay [1] (setting [4]), 11.31 ± 2.14 in assay [1] (setting [6]) and 2.00 ± 0.35 in assay [1] (setting [7]). Moreover, the figures for the “Mean Dose Reduction (Cpd. in combination)” value in assay [1] (setting [6]) and in assay [1] (setting [7]) were 1.58 ± 0.17 and 7.25 ± 2.19, respectively. The IC50 in assay [2] came to 0.00087 µM. Also, the CI90 in assay [2] (labelled 1st inhibitor with 2nd inhibitor SCH-D) came out at 0.86 ± 0.28.

B1: PRO 140: humanized IgG4,κ anti-CCR5 monoclonal antibody, humanized version of murine mAb PA14 (antibody, chains of the INN, looked up, V domains shown)
VH: EVQLVESGGGLVKPGGSLRLSCAASGYTFSNYWIGWVRQAPGKGLEWIGDIYPGGNYIRNNEKFKDKTTLSADTSKNTAYLQMNSLKTEDTAVYYCGSSFGSNYVFAWFTYWGQGTLVTVSS
VL: DIVMTQSPLSLPVTPGEPASISCRSSQRLLSSYGHTYLHWYLQKPGQSPQLLIYEVSNRFSGVPDRFSGSGSGTDFTLKISRVEAEDVGVYYCSQSTHVPLTFGQGTKVEIK
With B1, in assay [3], the “Mean Dose Reduction (2D7)” value turned out to be 2.54 ± 0.13 and the “Mean Dose Reduction (Cpd in combination)” value came out at 1.87 ± 0.07. In assay [3] (setting [12]), the IC50 was 0.0029 µM and the IC90 was 0.011 µM. Moreover, in assay [3] (setting [5]), the CI50 is listed as 0.96. The IC50 in assay [2] (read-out: IC50) is 0.0013 µM. Further, the IC90 in assay [2] (read-out: IC90) was 0.02 µM. In assay [2] (setting [8]), the CI50 is on record as 1.0 ± 0.27 and the CI90 amounted to 0.86 ± 0.33.
